Laboratory results as given in patent publication US20240132431A1, “METHOD FOR ALKYLATING ACIDIC FUNCTIONAL GROUP” (Chugai Seiyaku Kabushiki Kaisha, priority 2021, published 2024).

Target: T1, Bcl-2 protein (Recombinant Human Bcl-2 Protein) (Homo sapiens, UniProt P10415)
T1 construct: purchased Novus NBP2-34889
Experiment: Binding evaluation of mixture library compounds to Bcl-2 using AS-MS (affinity selection mass spectrometry)
Conditions: AS-MS, mixture of 1200 compounds, Bcl-2, ASMS Ratio(%)=(A−C)/B×100; for ASMS ratio (%) n = 1: replicate n = 1; for ASMS ratio (%) n = 2: replicate n = 2
Summary of the method: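 Bcl-2 binding is scored from LC/MS signal retained with protein through gel-filtration spin columns, normalised to unfiltered and protein-free controls. Incubation: 20 μM protein, […] per compound, 1 h, 23° C.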

T1 sequence (P10415 whole entry): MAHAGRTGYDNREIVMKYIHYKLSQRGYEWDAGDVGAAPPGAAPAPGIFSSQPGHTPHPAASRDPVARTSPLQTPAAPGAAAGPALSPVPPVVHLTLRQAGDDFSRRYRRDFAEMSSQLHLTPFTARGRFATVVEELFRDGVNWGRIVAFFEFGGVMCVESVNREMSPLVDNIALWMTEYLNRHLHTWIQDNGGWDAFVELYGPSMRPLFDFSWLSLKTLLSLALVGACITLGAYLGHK

CCOc1cccc(-c2cc(C(=O)N3CCN(c4ccc(C(=O)NCC(F)(F)F)nn4)CC3)cc(C(C)(C)C)c2)c1 [B1K015-01, 6-[4-[3-tert-Butyl-5-(3-ethoxyphenyl)benzoyl]piperazin-1-yl]-N-(2,2,2-trifluoroethyl)pyridazine-3-carboxamide]
ASMS ratio (%) n = 1: 2.9% | ASMS ratio (%) n = 2: −1.8%

CCOc1cncc(-c2cc(C(=O)N3CCN(c4ccc(C(=O)NCC(F)(F)F)nn4)CC3)cc(C(C)(C)C)c2)c1 [B1K016-01, 6-[4-[3-tert-Butyl-5-(5-ethoxypyridin-3-yl)benzoyl]piperazin-1-yl]-N-(2,2,2-trifluoroethyl)pyridazine-3-carboxamide]
ASMS ratio (%) n = 1: 0.0% | ASMS ratio (%) n = 2: 0.0%

CCOc1cccc(-c2cc(C(=O)N3CCN(c4ccc(C(=O)NCC(F)(F)F)nn4)CC3)cc(C(F)(F)F)c2)c1 [B1K017-01, 6-[4-[3-(3-Ethoxyphenyl)-5-(trifluoromethyl)benzoyl]piperazin-1-yl]-N-(2,2,2-trifluoroethyl)pyridazine-3-carboxamide]
ASMS ratio (%) n = 1: 0.0% | ASMS ratio (%) n = 2: 0.0%

CCOc1cncc(-c2cc(C(=O)N3CCN(c4ccc(C(=O)NCC(F)(F)F)nn4)CC3)cc(C(F)(F)F)c2)c1 [B1K018-01, 6-[4-[3-(5-Ethoxypyridin-3-yl)-5-(trifluoromethyl)benzoyl]piperazin-1-yl]-N-(2,2,2-trifluoroethyl)pyridazine-3-carboxamide]
ASMS ratio (%) n = 1: −0.6% | ASMS ratio (%) n = 2: 0.5%

CCOc1cccc(C#Cc2cc(C(=O)N3CCN(c4ccc(C(=O)NCC(F)(F)F)nn4)CC3)cc(C(F)(F)F)c2)c1 [B1K019-01, 6-[4-[3-[2-(3-Ethoxyphenyl)ethynyl]-5-(trifluoromethyl)benzoyl]piperazin-1-yl]-N-(2,2,2-trifluoroethyl)pyridazine-3-carboxamide]
ASMS ratio (%) n = 1: 0.0% | ASMS ratio (%) n = 2: 0.0%

CCOc1cncc(C#Cc2cc(C(=O)N3CCN(c4ccc(C(=O)NCC(F)(F)F)nn4)CC3)cc(C(F)(F)F)c2)c1 [B1K020-01, 6-[4-[3-[2-(5-Ethoxypyridin-3-yl)ethynyl]-5-(trifluoromethyl)benzoyl]piperazin-1-yl]-N-(2,2,2-trifluoroethyl)pyridazine-3-carboxamide]
ASMS ratio (%) n = 1: 2.9% | ASMS ratio (%) n = 2: −3.8%

CCOc1cccc(-c2cnn(-c3cc(C(=O)N4CCN(c5ccc(C(=O)NCC(F)(F)F)nn5)CC4)cc(C(F)(F)F)c3)c2)c1 [B1K021-01, 6-[4-[3-[4-(3-Ethoxyphenyl)pyrazol-1-yl]-5-(trifluoromethyl)benzoyl]piperazin-1-yl]-N-(2,2,2-trifluoroethyl)pyridazine-3-carboxamide]
ASMS ratio (%) n = 1: −0.5% | ASMS ratio (%) n = 2: −1.9%

CCOc1cncc(-c2cnn(-c3cc(C(=O)N4CCN(c5ccc(C(=O)NCC(F)(F)F)nn5)CC4)cc(C(F)(F)F)c3)c2)c1 [B1K022-01, 6-[4-[3-[4-(5-Ethoxypyridin-3-yl)pyrazol-1-yl]-5-(trifluoromethyl)benzoyl]piperazin-1-yl]-N-(2,2,2-trifluoroethyl)pyridazine-3-carboxamide]
ASMS ratio (%) n = 1: 1.4% | ASMS ratio (%) n = 2: 0.1%

CCOc1cccc(-c2csc(C(=O)N3CCN(c4ccc(C(=O)NCC(F)(F)F)cc4)CC3)c2)c1 [B1K023-01, 4-[4-[4-(3-Ethoxyphenyl)thiophene-2-carbonyl]piperazin-1-yl]-N-(2,2,2-trifluoroethyl)benzamide]
ASMS ratio (%) n = 1: 4.3% | ASMS ratio (%) n = 2: 1.3%

CCOc1cncc(-c2csc(C(=O)N3CCN(c4ccc(C(=O)NCC(F)(F)F)cc4)CC3)c2)c1 [B1K024-01, 4-[4-[4-(5-Ethoxypyridin-3-yl)thiophene-2-carbonyl]piperazin-1-yl]-N-(2,2,2-trifluoroethyl)benzamide]
ASMS ratio (%) n = 1: 0.0% | ASMS ratio (%) n = 2: 0.0%

CCOc1cccc(-c2ccc(C(=O)N3CCN(c4ccc(C(=O)NCC(F)(F)F)cc4)CC3)cc2C)c1 [B1K025-01, 4-[4-[4-(3-Ethoxyphenyl)-3-methylbenzoyl]piperazin-1-yl]-N-(2,2,2-trifluoroethyl)benzamide]
ASMS ratio (%) n = 1: 0.3% | ASMS ratio (%) n = 2: −0.8%

CCOc1cncc(-c2ccc(C(=O)N3CCN(c4ccc(C(=O)NCC(F)(F)F)cc4)CC3)cc2C)c1 [B1K026-01, 4-[4-[4-(5-Ethoxypyridin-3-yl)-3-methylbenzoyl]piperazin-1-yl]-N-(2,2,2-trifluoroethyl)benzamide]
ASMS ratio (%) n = 1: 4.2% | ASMS ratio (%) n = 2: 0.2%

CCOc1cccc(-c2ccc(C(=O)N3CCN(c4ccc(C(=O)NCC(F)(F)F)cc4)CC3)cc2F)c1 [B1K027-01, 4-[4-[4-(3-Ethoxyphenyl)-3-fluorobenzoyl]piperazin-1-yl]-N-(2,2,2-trifluoroethyl)benzamide]
ASMS ratio (%) n = 1: −0.8% | ASMS ratio (%) n = 2: −3.6%

CCOc1cncc(-c2ccc(C(=O)N3CCN(c4ccc(C(=O)NCC(F)(F)F)cc4)CC3)cc2F)c1 [B1K028-01, 4-[4-[4-(5-Ethoxypyridin-3-yl)-3-fluorobenzoyl]piperazin-1-yl]-N-(2,2,2-trifluoroethyl)benzamide]
ASMS ratio (%) n = 1: 0.0% | ASMS ratio (%) n = 2: 0.0%

CCOc1cncc(C#Cc2ccccc2C(=O)N2CCN(c3ccc(C(=O)NCC(F)(F)F)cc3)CC2)c1 [B1K030-01, 4-[4-[2-[2-(5-Ethoxypyridin-3-yl)ethynyl]benzoyl]piperazin-1-yl]-N-(2,2,2-trifluoroethyl)benzamide]
ASMS ratio (%) n = 1: 0.0% | ASMS ratio (%) n = 2: 0.9%

CCOc1cccc(C#Cc2cncc(C(=O)N3CCN(c4ccc(C(=O)NCC(F)(F)F)cc4)CC3)c2)c1 [B1K031-01, 4-[4-[5-[2-(3-Ethoxyphenyl)ethynyl]pyridine-3-carbonyl]piperazin-1-yl]-N-(2,2,2-trifluoroethyl)benzamide]
ASMS ratio (%) n = 1: 0.0% | ASMS ratio (%) n = 2: 0.0%

CCOc1cccc(-c2ccccc2CCC(=O)N2CCN(c3ccc(C(=O)NCC(F)(F)F)cc3)CC2)c1 [B1K033-01, 4-[4-[3-[2-(3-Ethoxyphenyl)phenyl]propanoyl]piperazin-1-yl]-N-(2,2,2-trifluoroethyl)benzamide]
ASMS ratio (%) n = 1: 2.3% | ASMS ratio (%) n = 2: −0.6%

CCOc1cncc(-c2ccccc2CCC(=O)N2CCN(c3ccc(C(=O)NCC(F)(F)F)cc3)CC2)c1 [B1K034-01, 4-[4-[3-[2-(5-Ethoxypyridin-3-yl)phenyl]propanoyl]piperazin-1-yl]-N-(2,2,2-trifluoroethyl)benzamide]
ASMS ratio (%) n = 1: −0.3% | ASMS ratio (%) n = 2: 0.0%

CCOc1cccc(-c2ccc(C(=O)N3CCN(c4ccc(C(=O)NCC(F)(F)F)cc4)CC3)c3ccccc23)c1 [B1K035-01, 4-[4-[4-(3-Ethoxyphenyl)naphthalene-1-carbonyl]piperazin-1-yl]-N-(2,2,2-trifluoroethyl)benzamide]
ASMS ratio (%) n = 1: 4.8% | ASMS ratio (%) n = 2: 4.5%

CCOc1cncc(-c2ccc(C(=O)N3CCN(c4ccc(C(=O)NCC(F)(F)F)cc4)CC3)c3ccccc23)c1 [B1K036-01, 4-[4-[4-(5-Ethoxypyridin-3-yl)naphthalene-1-carbonyl]piperazin-1-yl]-N-(2,2,2-trifluoroethyl)benzamide]
ASMS ratio (%) n = 1: 1.1% | ASMS ratio (%) n = 2: −0.4%

CCOc1cccc(-c2cc(C(=O)N3CCN(c4ccc(C(=O)NCC(F)(F)F)cc4)CC3)cc(C(C)(C)C)c2)c1 [B1K037-01, 4-[4-[3-tert-Butyl-5-(3-ethoxyphenyl)benzoyl]piperazin-1-yl]-N-(2,2,2-trifluoroethyl)benzamide]
ASMS ratio (%) n = 1: 0.8% | ASMS ratio (%) n = 2: 1.9%

CCOc1cncc(-c2cc(C(=O)N3CCN(c4ccc(C(=O)NCC(F)(F)F)cc4)CC3)cc(C(C)(C)C)c2)c1 [B1K038-01, 4-[4-[3-tert-Butyl-5-(5-ethoxypyridin-3-yl)benzoyl]piperazin-1-yl]-N-(2,2,2-trifluoroethyl)benzamide]
ASMS ratio (%) n = 1: 0.6% | ASMS ratio (%) n = 2: −1.8%

CCOc1cccc(C#Cc2cc(C(=O)N3CCN(c4ccc(C(=O)NCC(F)(F)F)cc4)CC3)cc(C(F)(F)F)c2)c1 [B1K041-01, 4-[4-[3-[2-(3-Ethoxyphenyl)ethynyl]-5-(trifluoromethyl)benzoyl]piperazin-1-yl]-N-(2,2,2-trifluoroethyl)benzamide]
ASMS ratio (%) n = 1: 0.0% | ASMS ratio (%) n = 2: 0.0%

CCOc1cncc(C#Cc2cc(C(=O)N3CCN(c4ccc(C(=O)NCC(F)(F)F)cc4)CC3)cc(C(F)(F)F)c2)c1 [B1K042-01, 4-[4-[3-[2-(5-Ethoxypyridin-3-yl)ethynyl]-5-(trifluoromethyl)benzoyl]piperazin-1-yl]-N-(2,2,2-trifluoroethyl)benzamide]
ASMS ratio (%) n = 1: 5.0% | ASMS ratio (%) n = 2: −0.1%

CCOc1cccc(-c2cnn(-c3cc(C(=O)N4CCN(c5ccc(C(=O)NCC(F)(F)F)cc5)CC4)cc(C(F)(F)F)c3)c2)c1 [B1K043-01, 4-[4-[3-[4-(3-Ethoxyphenyl)pyrazol-1-yl]-5-(trifluoromethyl)benzoyl]piperazin-1-yl]-N-(2,2,2-trifluoroethyl)benzamide]
ASMS ratio (%) n = 1: 3.8% | ASMS ratio (%) n = 2: 1.9%
